Measured values published in paper PMC6458850, “CXXC5 mediates growth plate senescence and is a target for enhancement of longitudinal bone growth” (Life Science Alliance, 2019).

Molecular target: T1, CXXC5–DVL interaction (Homo sapiens, UniProt O14640)
T1 sequence (O14640 251-340 limits assumed): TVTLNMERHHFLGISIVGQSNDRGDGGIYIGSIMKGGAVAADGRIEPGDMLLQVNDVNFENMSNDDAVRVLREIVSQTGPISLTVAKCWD
Experiment: In vitro CXXC5–DVL binding assay (FITC-tagged PTD-DBMP on DVL PDZ domain)
Conditions: compound 30 μM; fluorescent intensity normalized to DMSO-treated control
Procedure: After the addition of 10 μM FITC-tagged PTD-DBMP to each well, each compound in the chemical library or control (DMSO) was treated to the well at a final concentration of 30 μM. The fluorescence intensity was measured using a Fluorstar Optima microplate reader (BGM Lab Technologies, Ortenberg, Germany). The binding values were calculated as a percent ratio of the fluorescent intensity normalized to the DMSO-treated control.

O=C1Nc2ccccc2/C1=C1/Nc2ccccc2/C1=N\O [Compound 12, indirubin-3′-oxime, reference compound] was tested, and the “CXXC5-DVL interaction (%)” value was 7.65%.
